# Test results reported in patent EP4635944A1, “2-AZABICYCLO[3.1.1]HEPTANE COMPOUND” (Daiichi Sankyo Company, Limited, priority 2022, dated 2024).
# Biological target: T1, human OX2R (Homo sapiens, UniProt O43614)
# T1 construct: host or cells: CHO-K1 (Chinese Hamster Ovary K1)
# T1 sequence (O43614 1-444): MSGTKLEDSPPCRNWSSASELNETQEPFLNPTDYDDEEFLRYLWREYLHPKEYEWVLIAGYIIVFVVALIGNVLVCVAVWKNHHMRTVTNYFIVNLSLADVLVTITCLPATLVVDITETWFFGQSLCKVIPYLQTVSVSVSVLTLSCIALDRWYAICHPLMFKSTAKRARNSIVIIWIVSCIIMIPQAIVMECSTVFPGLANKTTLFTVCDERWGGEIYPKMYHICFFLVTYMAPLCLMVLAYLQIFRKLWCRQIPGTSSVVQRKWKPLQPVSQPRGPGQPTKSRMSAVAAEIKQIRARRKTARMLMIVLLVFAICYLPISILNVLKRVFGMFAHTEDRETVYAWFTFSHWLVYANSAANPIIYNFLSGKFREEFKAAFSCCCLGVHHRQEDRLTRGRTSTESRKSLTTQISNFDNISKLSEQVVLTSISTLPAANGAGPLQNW
# Experiment: Evaluation of OX2R agonist activity (intracellular calcium, CHO-K1 cells with forced expression of human OX2R)
# Format: cell-based
# Conditions: CHO-K1 cells expressing human OX2R; 100% = 5 µM of the reference compound; read-out: hOX2R EC50
# Protocol: Evaluation of OX2R agonist activity
# Chinese Hamster Ovary K1 (CHO-K1) cells (GenScript) with forced expression of human OX2R were seeded onto a 384 well microplate (Corning) at 7500 cells/well and cultured for 24 hours. 20 µL of the loading buffer (25 mM HEPES containing 1.25 mM of Probenecid and 2.5 µg/mL of Fluo 4-AM at final concentration, Hank's balanced salt solution, 0.06% Pluronic F-127, Quenching buffer) in the Calcium Kit II (DOJINDO LABORATORIES) was added, and the microplate was allowed to stand for 30 minutes. A reference compound (Example435 of WO 2019/027058, N-[(2S,3S)-2-[[3-(3,5-difluorophenyl)-2-fluoro-phenyl]methyl]-1-(2-hydroxy-2-methylpropanoyl)pyrrolidin-3-yl]ethanesulfonamide) or the test compound was added in 10 µL, and changes in intracellular calcium ion concentration were measured using FDSS7000EX (Hamamatsu Photonics K.K.) as a fluorescence intensity ratio obtained upon dual wavelength excitation at 480 nm and 540 nm. Note that the reference compound or test compound was dissolved in DMSO (final concentration of DMSO was 0.5%) and diluted with an assay buffer (20 mM HEPES, Hank's balanced salt solution, 0.1% BSA). The difference between the maximum and minimum fluorescence values between 5 and 7 seconds after the addition of the test compound or reference compound was used as the indicator. The value of wells to which the assay buffer containing no test compound was added was defined as 0%, and the value of wells to which 5 µM of the reference compound was added was defined as 100%. The 50% effective concentration (EC50 value) was determined from the values obtained when various concentrations of the test compound were added. […]
row,EC50 [nM],SMILES
1,94,"CS(=O)(=O)N[C@H]1C2CC(C2)N(C(=O)NCC2CC2)[C@H]1Cc1cccc(-c2cc(F)cc(F)c2)c1F [Example 39, (3S,4S)-N-(Cyclopropylmethyl)-4-[(methylsulfonyl)amino]-3-[(2,3',5'-trifluoro[biphenyl]-3-yl)methyl]-2-azabicyclo[3.1.1]heptane-2-carboxamide]"
2,49,"C[C@@H](O)C(=O)N1C2CC(C2)[C@H](NS(C)(=O)=O)[C@@H]1Cc1cccc(-c2cccc(F)c2)c1F [Example 40, N-{(3S,4S)-3-[(2,3'-Difluoro[biphenyl]-3-yl)methyl]-2-[(2R)-2-hydroxypropanoyl]-2-azabicyclo[3.1.1]heptan-4-yl}methanesulfonamide]"
3,31,"C[C@@H](O)C(=O)N1C2CC(C2)[C@H](NS(C)(=O)=O)[C@@H]1Cc1cccc(-c2cccc(C3CC3)c2)c1F [Example 41, N-{(3S,4S)-3-[(3'-Cyclopropyl-2-fluoro[biphenyl]-3-yl)methyl]-2-[(2R)-2-hydroxypropanoyl]-2-azabicyclo[3.1.1]heptan-4-yl}methanesulfonamide]"
4,28,"C[C@@H](O)C(=O)N1C2CC(C2)[C@H](NS(C)(=O)=O)[C@@H]1Cc1cccc(-c2cccc(OC(F)(F)F)c2)c1F [Example 42, N-{(3S,4S)-3-{[2-Fluoro-3'-(trifluoromethoxy)[biphenyl]-3-yl]methyl}-2-[(2R)-2-hydroxypropanoyl]-2-azabicyclo[3.1.1]heptan-4-yl}methanesulfonamide]"
5,49,"C[C@@H](O)C(=O)N1C2CC(C2)[C@H](NS(C)(=O)=O)[C@@H]1Cc1cccc(-c2cccc(C3CC3)n2)c1F [Example 43, N-{(3S,4S)-3-[3-(6-Cyclopropylpyridin-2-yl)-2-fluorobenzyl]-2-[(2R)-2-hydroxypropanoyl]-2-azabicyclo[3.1.1]heptan-4-yl}methanesulfonamide]"
6,22,"C[C@@H](O)C(=O)N1C2CC(C2)[C@H](NS(=O)(=O)C2CC2)[C@@H]1Cc1cccc(-c2ccccc2)c1F [Example 44, N-{(3S,4S)-3-[(2-Fluoro[biphenyl]-3-yl)methyl]-2-[(2R)-2-hydroxypropanoyl]-2-azabicyclo[3.1.1]heptan-4-yl}cyclopropanesulfonamide]"
7,115,"O=C([C@H]1C[C@H]1F)N1C2CC(C2)[C@H](NS(=O)(=O)C2CC2)[C@@H]1Cc1cccc(-c2ccccc2)c1F [Example 45, N-[(3S,4S)-3-[(2-Fluoro[biphenyl]-3-yl)methyl]-2-{[(1R,2R)-2-fluorocyclopropyl]carbonyl}-2-azabicyclo[3.1.1]heptan-4-yl]cyclopropanesulfonamide]"
8,106,"CC(=O)N1C2CC(F)(C2)[C@H](NS(C)(=O)=O)[C@@H]1Cc1cccc(-c2cccc(Cl)c2)c1F [Example 46, N-{(3S,4R)-2-Acetyl-3-[(3'-chloro-2-fluoro[biphenyl]-3-yl)methyl]-5-fluoro-2-azabicyclo[3.1.1]heptan-4-yl}methanesulfonamide]"
9,117,"C[C@@H](O)C(=O)N1C2CC(C2)[C@H](NS(C)(=O)=O)[C@@H]1Cc1cccc(-c2cccc(C(F)F)n2)c1F [Example 47, N-{(3S,4S)-3-{3-[6-(Difluoromethyl)pyridin-2-yl]-2-fluorobenzyl}-2-[(2R)-2-hydroxypropanoyl]-2-azabicyclo[3.1.1]heptan-4-yl}methanesulfonamide]"
10,33,"CO[C@H](C)C(=O)N1C2CC(C2)[C@H](NS(C)(=O)=O)[C@@H]1Cc1cccc(-c2cc(F)cc(F)c2)c1F [Example 48, N-{(3S,4S)-2-[(2R)-2-Methoxypropanoyl]-3-[(2,3',5'-trifluoro[biphenyl]-3-yl)methyl]-2-azabicyclo[3.1.1]heptan-4-yl}methanesulfonamide]"
11,20,"CC(C)(O)C(=O)N1C2CC(F)(C2)[C@H](NS(C)(=O)=O)[C@@H]1Cc1cccc(-c2cccc(C(F)F)c2)c1F [Example 49, N-[(3S,4R)-3-{[3'-(Difluoromethyl)-2-fluoro[biphenyl]-3-yl]methyl}-5-fluoro-2-(2-hydroxy-2-methylpropanoyl)-2-azabicyclo[3.1.1]heptan-4-yl]methanesulfonamide]"
12,41,"CC(C)(O)C(=O)N1C2CC(F)(C2)[C@H](NS(C)(=O)=O)[C@@H]1Cc1cccc(-c2ccccc2)c1F [Example 50, N-[(3S,4R)-5-Fluoro-3-[(2-fluoro[biphenyl]-3-yl)methyl]-2-(2-hydroxy-2-methylpropanoyl)-2-azabicyclo[3.1.1]heptan-4-yl]methanesulfonamide]"
13,33,"CC(C)(O)C(=O)N1C2CC(C2)[C@H](NS(C)(=O)=O)[C@@H]1Cc1cccc(-c2cc(F)cc(C(F)F)c2)c1F [Example 51, N-[(3S,4S)-3-{[3'-(Difluoromethyl)-2,5'-difluoro[biphenyl]-3-yl]methyl}-2-(2-hydroxy-2-methylpropanoyl)-2-azabicyclo[3.1.1]heptan-4-yl]methanesulfonamide]"
14,34,"CC(C)(O)C(=O)N1C2CC(C2)[C@H](NS(C)(=O)=O)[C@@H]1Cc1cccc(-c2cc(F)cc(Cl)c2)c1F [Example 52, N-[(3S,4S)-3-[(3'-Chloro-2,5'-difluoro[biphenyl]-3-yl)methyl]-2-(2-hydroxy-2-methylpropanoyl)-2-azabicyclo[3.1.1]heptan-4-yl]methanesulfonamide]"
15,591,"CS(=O)(=O)N[C@@H]1[C@H](Cc2cccc(-c3ccccc3)c2F)N(C(=O)c2cocn2)C2CC1(F)C2 [Example 55, N-[(3S,4R)-5-Fluoro-3-[(2-fluoro[biphenyl]-3-yl)methyl]-2-(1,3-oxazol-4-ylcarbonyl)-2-azabicyclo[3.1.1]heptan-4-yl]methanesulfonamide]"
16,244,"CCC(=O)N1C2CC(C2)[C@H](NS(C)(=O)=O)[C@@H]1Cc1cccc(-c2ccccc2)c1F [Example 56, N-{(3S,4S)-3-[(2-Fluoro[biphenyl]-3-yl)methyl]-2-propanoyl-2-azabicyclo[3.1.1]heptan-4-yl}methanesulfonamide]"
17,38,"CC(C)C(=O)N1C2CC(C2)[C@H](NS(C)(=O)=O)[C@@H]1Cc1cccc(-c2ccccc2)c1F [Example 57, N-[(3S,4S)-3-[(2-Fluoro[biphenyl]-3-yl)methyl]-2-(2-methylpropanoyl)-2-azabicyclo[3.1.1]heptan-4-yl]methanesulfonamide]"
18,41,"CS(=O)(=O)N[C@H]1C2CC(C2)N(C(=O)[C@H](O)C2CC2)[C@H]1Cc1cccc(-c2ccccc2)c1F [Example 64, N-{(3S,4S)-2-[(2R)-2-Cyclopropyl-2-hydroxyacetyl]-3-[(2-fluoro[biphenyl]-3-yl)methyl]-2-azabicyclo[3.1.1]heptan-4-yl}methanesulfonamide]"
19,393,"CCOC(=O)N1C2CC(C2)[C@H](NS(C)(=O)=O)[C@@H]1Cc1cccc(-c2ccccc2)c1F [Example 65, Ethyl (3S,4S)-3-[(2-fluoro[biphenyl]-3-yl)methyl]-4-[(methylsulfonyl)amino]-2-azabicyclo[3.1.1]heptane-2-carboxylate]"

row,SMILES,EC50 [nM]
1,"[2H]c1c([2H])c([2H])c(-c2cccc(C[C@H]3[C@@H](NS(C)(=O)=O)C4CC(C4)N3C(=O)[C@@H](C)O)c2F)c([2H])c1[2H] [Example 54, N-{(3S,4S)-3-{[2-Fluoro(2',3',4',5',6'-^2H5)[biphenyl]-3-yl]methyl}-2-[(2R)-2-hydroxypropanoyl]-2-azabicyclo[3.1.1]heptan-4-yl}methanesulfonamide]",22
